Where a name gives a salt, the structure may show the parent alone.
Biological target: human CXCR3-A receptor (Homo sapiens (Human), UniProt P49682)
Experiment: 125I-CXCL10 competition radioligand binding assay;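 note: One-hour incubation of membranes with tracer, bound radioligand separated by glass fibre filtration, IC50 derived from four-parameter nonlinear fit of competition curves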
Settings: displacement of 125I-CXCL10 from membranes of CHO cells expressing human recombinant CXCR3-A

human CXCR3-A receptor, sequence (P49682 whole entry): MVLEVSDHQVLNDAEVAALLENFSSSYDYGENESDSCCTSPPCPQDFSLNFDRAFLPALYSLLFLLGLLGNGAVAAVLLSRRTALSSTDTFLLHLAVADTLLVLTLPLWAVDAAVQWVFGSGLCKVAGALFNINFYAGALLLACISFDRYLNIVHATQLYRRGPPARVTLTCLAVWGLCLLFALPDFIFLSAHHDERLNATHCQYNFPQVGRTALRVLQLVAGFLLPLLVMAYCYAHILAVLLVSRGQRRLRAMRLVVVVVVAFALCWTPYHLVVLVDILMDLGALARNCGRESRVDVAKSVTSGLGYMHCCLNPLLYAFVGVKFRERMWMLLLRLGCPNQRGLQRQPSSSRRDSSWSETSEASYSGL

`Cc1cc(CN(CC2CC2)C(CC(=O)O)c2ccc3c(c2)CCO3)ccc1CCCN1C(=O)CCC1=O` (stereo not drawn) [Example 142, 3-(Cyclopropylmethyl-{4-[3-(2,5-dioxo-pyrrolidin-1-yl)-propyl]-3-methyl-benzyl}-amino)-3-(2,3-dihydro-benzofuran-5-yl)-propionic acid] was tested. Which IC50 did it give?
The IC50 was 211 nM.

With `Cc1cc(CN(CC2CCCCC2)C(CC(=O)O)c2ccc3c(c2)CCO3)ccc1CCCN1C(=O)CCC1=O` (stereo not drawn) [Example 143, 3-(Cyclohexylmethyl-{4-[3-(2,5-dioxo-pyrrolidin-1-yl)-propyl]-3-methyl-benzyl}-amino)-3-(2,3-dihydro-benzofuran-5-yl)-propionic acid] as the compound, how does the IC50 read?
Its IC50 is 211 nM.

Which IC50 does the source give for `CCCCN(Cc1ccc(OCCN2C(=O)CCC2=O)c(C)c1)C(CC(=O)O)c1ccc2c(c1)CCO2` (stereo not drawn) [Example 145, 3-(Butyl-{4-[2-(2,5-dioxo-pyrrolidin-1-yl)-ethoxy]-3-methyl-benzyl}-amino)-3-(2,3-dihydro-benzofuran-5-yl)-propionic acid] here?
The IC50 was 38 nM.

`COc1cc(CN(CC2CCCC2)C(CC(=O)O)c2ccc3c(c2)CCO3)ccc1OCCN1C(=O)CCC1=O` (stereo not drawn) [Example 146, 3-(Cyclopentylmethyl-{4-[2-(2,5-dioxo-pyrrolidin-1-yl)-ethoxy]-3-methoxy-benzyl}-amino)-3-(2,3-dihydro-benzofuran-5-yl)-propionic acid] was tested. Which IC50 did it give?
The IC50 was 56 nM.

How did the IC50 turn out when `Cc1cc(CN(CC2CCCC2)C(CC(=O)O)c2ccc3c(c2)CCO3)ccc1OCCN1C(=O)CCC1=O` (stereo not drawn) [Example 147, 3-(Cyclopentylmethyl-{4-[2-(2,5-dioxo-pyrrolidin-1-yl)-ethoxy]-3-methyl-benzyl}-amino)-3-(2,3-dihydro-benzofuran-5-yl)-propionic acid] was run?
Its IC50 is 46 nM.

For `COc1cc(CN(CC2CCCCC2)C(CC(=O)O)c2ccc3c(c2)CCO3)ccc1OCCN1C(=O)CCC1=O` (stereo not drawn) [Example 148, 3-(Cyclohexylmethyl-{4-[2-(2,5-dioxo-pyrrolidin-1-yl)-ethoxy]-3-methoxy-benzyl}-amino)-3-(2,3-dihydro-benzofuran-5-yl)-propionic acid], which IC50 is on record?
Its IC50 is 28 nM.

`Cc1cc(CN(CC2CCCCC2)C(CC(=O)O)c2ccc3c(c2)CCO3)ccc1OCCN1C(=O)CCC1=O` (stereo not drawn) [Example 149, 3-(Cyclohexylmethyl-{4-[2-(2,5-dioxo-pyrrolidin-1-yl)-ethoxy]-3-methyl-benzyl}-amino)-3-(2,3-dihydro-benzofuran-5-yl)-propionic acid] was tested. Which IC50 did it give?
Its IC50 is 72 nM.

`CCCCN(Cc1ccc(OCCN2C(=O)CCC2=O)c(OC)c1)C(CC(=O)O)c1ccc(Cl)cc1Cl` (stereo not drawn) [Example 150, 3-(Butyl-{4-[2-(2,5-dioxo-pyrrolidin-1-yl)-ethoxy]-3-methoxy-benzyl}-amino)-3-(2,4-dichloro-phenyl)-propionic acid] was tested. Which IC50 did it give?
Its IC50 is 140 nM.

`COc1cc(CN(C)C(c2ccc(Cl)cc2)C(C)C(=O)O)ccc1OCCn1c(=O)ccn(C)c1=O` (stereo not drawn) [Example 152, 3-(4-Chloro-phenyl)-3-({3-methoxy-4-[2-(3-methyl-2,6-dioxo-3,6-dihydro-2H-pyrimidin-1-yl)-ethoxy]-benzyl}-methyl-amino)-2-methyl-propionic acid] was tested. Which IC50 did it give?
Its IC50 is 754 nM.

With `CCN(Cc1ccc(OCCn2c(=O)ccn(C)c2=O)c(OC)c1)C(c1ccc(Cl)cc1)C(C)C(=O)O` (stereo not drawn) [Example 153, 3-(4-Chloro-phenyl)-3-(ethyl-{3-methoxy-4-[2-(3-methyl-2,6-dioxo-3,6-dihydro-2H-pyrimidin-1-yl)-ethoxy]-benzyl}-amino)-2-methyl-propionic acid] as the compound, how does the IC50 read?
The IC50 was 635 nM.

For `CCN(Cc1ccc(OCCn2c(=O)ccn(C)c2=O)c(C)c1)C(CC(=O)O)c1ccc2c(c1)CCO2` (stereo not drawn) [Example 154, 3-(2,3-Dihydro-benzofuran-5-yl)-3-(ethyl-{3-methyl-4-[2-(3-methyl-2,6-dioxo-3,6-dihydro-2H-pyrimidin-1-yl)-ethoxy]-benzyl}-amino)-propionic acid], which IC50 is on record?
The IC50 was 58 nM.

With `CCCN(Cc1ccc(OCCn2c(=O)ccn(C)c2=O)c(C)c1)C(CC(=O)O)c1ccc2c(c1)CCO2` (stereo not drawn) [Example 155, 3-(2,3-Dihydro-benzofuran-5-yl)-3-({3-methyl-4-[2-(3-methyl-2,6-dioxo-3,6-dihydro-2H-pyrimidin-1-yl)-ethoxy]-benzyl}-propyl-amino)-propionic acid] as the compound, how does the IC50 read?
Its IC50 is 529 nM.

For `COc1cc(CN(CC2CC2)C(CC(=O)O)c2ccc(Cl)cc2Cl)ccc1OCCn1c(=O)ccn(C)c1=O` (stereo not drawn) [Example 156, 3-(Cyclopropylmethyl-{3-methoxy-4-[2-(3-methyl-2,6-dioxo-3,6-dihydro-2H-pyrimidin-1-yl)-ethoxy]-benzyl}-amino)-3-(2,4-dichloro-phenyl)-propionic acid], which IC50 is on record?
Its IC50 is 120 nM.

Which IC50 does the source give for `Cc1cc(CN(CC(C)C)C(CC(=O)O)c2ccc3c(c2)CCO3)ccc1OCCn1c(=O)ccn(C)c1=O` (stereo not drawn) [Example 158, 3-(2,3-Dihydro-benzofuran-5-yl)-3-(isobutyl-{3-methyl-4-[2-(3-methyl-2,6-dioxo-3,6-dihydro-2H-pyrimidin-1-yl)-ethoxy]-benzyl}-amino)-propionic acid] here?
The IC50 was 75 nM.

`CCCN(Cc1ccc(OCCn2c(=O)ccn(C)c2=O)c(OC)c1)C(CC(=O)O)c1ccc(Cl)cc1Cl` (stereo not drawn) [Example 159, 3-(2,4-Dichloro-phenyl)-3-({3-methoxy-4-[2-(3-methyl-2,6-dioxo-3,6-dihydro-2H-pyrimidin-1-yl)-ethoxy]-benzyl}-propyl-amino)-propionic acid] was tested. Which IC50 did it give?
Its IC50 is 354 nM.

`Cc1cc(CN(CC2CCCC2)C(CC(=O)O)c2ccc3c(c2)CCO3)ccc1OCCn1c(=O)ccn(C)c1=O` (stereo not drawn) [Example 160, 3-(Cyclopentylmethyl-{3-methyl-4-[2-(3-methyl-2,6-dioxo-3,6-dihydro-2H-pyrimidin-1-yl)-ethoxy]-benzyl}-amino)-3-(2,3-dihydro-benzofuran-5-yl)-propionic acid] was tested. Which IC50 did it give?
The IC50 was 81 nM.

Which IC50 does the source give for `CCCCN(Cc1ccc(OCCn2c(=O)ccn(C)c2=O)c(C)c1)C(CC(=O)O)c1ccc2c(c1)CCO2` (stereo not drawn) [Example 161, 3-(Butyl-{3-methyl-4-[2-(3-methyl-2,6-dioxo-3,6-dihydro-2H-pyrimidin-1-yl)-ethoxy]-benzyl}-amino)-3-(2,3-dihydro-benzofuran-5-yl)-propionic acid] here?
Its IC50 is 76 nM.

For `Cc1cc(CN(CC2CC2)C(CC(=O)O)c2ccc(Cl)cc2Cl)ccc1OCCN1C(=O)CCC1=O` (stereo not drawn) [Example 163, 3-(Cyclopropylmethyl-{4-[2-(2,5-dioxo-pyrrolidin-1-yl)-ethoxy]-3-methyl-benzyl}-amino)-3-(2,4-dichloro-phenyl)-propionic acid], which IC50 is on record?
Its IC50 is 162 nM.

Which IC50 does the source give for `CCCCN(Cc1ccc(OCCN2C(=O)CCC2=O)c(C)c1)C(CC(=O)O)c1ccc(Cl)cc1Cl` (stereo not drawn) [Example 164, 3-(Butyl-{4-[2-(2,5-dioxo-pyrrolidin-1-yl)-ethoxy]-3-methyl-benzyl}-amino)-3-(2,4-dichloro-phenyl)-propionic acid] here?
The IC50 was 133 nM.

`COc1cc(CN(Cc2ccc(F)cc2)C(CC(=O)O)c2ccc(Cl)cc2)ccc1OCCN1C(=O)CCC1=O` (stereo not drawn) [Example 165, 3-(4-Chloro-phenyl)-3-[{4-[2-(2,5-dioxo-pyrrolidin-1-yl)-ethoxy]-3-methoxy-benzyl}-(4-fluoro-benzyl)-amino]-propionic acid; hydrochloride] was tested. Which IC50 did it give?
The IC50 was 75 nM.

Which IC50 does the source give for `Cc1cc(CN(CCC(F)(F)F)C(CC(=O)O)c2ccc(Cl)c(Cl)c2)ccc1OCCN1C(=O)CCC1=O` (stereo not drawn) [Example 167, 3-(3,4-Dichloro-phenyl)-3-[{4-[2-(2,5-dioxo-pyrrolidin-1-yl)-ethoxy]-3-methyl-benzyl}-(3,3,3-trifluoro-propyl)-amino]-propionic acid] here?
Its IC50 is 2440 nM.

For `CCCCN(Cc1ccc(OCCN2C(=O)CCC2=O)c(OC)c1)C1c2ccc(Cl)cc2CC1C(=O)O` (stereo not drawn) [Example 168, 1-(Butyl-{4-[2-(2,5-dioxo-pyrrolidin-1-yl)-ethoxy]-3-methoxy-benzyl}-amino)-5-chloro-indan-2-carboxylic acid], which IC50 is on record?
Its IC50 is 237 nM.

With `COc1cc(CN(CC2CCCCC2)C2c3ccc(Cl)cc3CC2C(=O)O)ccc1OCCN1C(=O)CCC1=O` (stereo not drawn) [Example 169, 5-Chloro-1-(cyclohexylmethyl-{4-[2-(2,5-dioxo-pyrrolidin-1-yl)-ethoxy]-3-methoxy-benzyl}-amino)-indan-2-carboxylic acid] as the compound, how does the IC50 read?
Its IC50 is 407 nM.

How did the IC50 turn out when `COc1cc(CN(CC(C)C)C2c3ccc(Cl)cc3CC2C(=O)O)ccc1OCCN1C(=O)CCC1=O` (stereo not drawn) [Example 170, 5-Chloro-1-({4-[2-(2,5-dioxo-pyrrolidin-1-yl)-ethoxy]-3-methoxy-benzyl}-isobutyl-amino)-indan-2-carboxylic acid] was run?
The IC50 was 345 nM.

With `COc1cc(CN(CC2CCCC2)C2c3ccc(Cl)cc3CC2C(=O)O)ccc1OCCN1C(=O)CCC1=O` (stereo not drawn) [Example 171, 5-Chloro-1-(cyclopentylmethyl-{4-[2-(2,5-dioxo-pyrrolidin-1-yl)-ethoxy]-3-methoxy-benzyl}-amino)-indan-2-carboxylic acid] as the compound, how does the IC50 read?
Its IC50 is 389 nM.

`CCCCN(Cc1ccc(OCCN2C(=O)CCC2=O)c(C)c1)C1c2ccc(Cl)cc2CC1C(=O)O` (stereo not drawn) [Example 173, 1-(Butyl-{4-[2-(2,5-dioxo-pyrrolidin-1-yl)-ethoxy]-3-methyl-benzyl}-amino)-5-chloro-indan-2-carboxylic acid] was tested. Which IC50 did it give?
The IC50 was 603 nM.

Which IC50 does the source give for `Cc1cc(CN(CC(C)C)C2c3ccc(Cl)cc3CC2C(=O)O)ccc1OCCN1C(=O)CCC1=O` (stereo not drawn) [Example 174, 5-Chloro-1-({4-[2-(2,5-dioxo-pyrrolidin-1-yl)-ethoxy]-3-methyl-benzyl}-isobutyl-amino)-indan-2-carboxylic acid] here?
Its IC50 is 800 nM.

For `CCN(Cc1ccc(OCCN2C(=O)CCC2=O)c(C)c1)C(c1ccc(Cl)cc1)C(C)C(=O)O` (stereo not drawn) [Example 175, 3-(4-Chloro-phenyl)-3-({4-[2-(2,5-dioxo-pyrrolidin-1-yl)-ethoxy]-3-methyl-benzyl}-ethyl-amino)-2-methyl-propionic acid], which IC50 is on record?
Its IC50 is 266 nM.

`Cc1cc(CN(C)C(c2ccc(Cl)cc2)C(C)C(=O)O)ccc1OCCN1C(=O)CCC1=O` (stereo not drawn) [Example 176] was tested. Which IC50 did it give?
The IC50 was 5520 nM.

`CCCCN(Cc1ccc(CCCN2C(=O)CCC2=O)c(C)c1)C(CC(=O)O)c1ccc2c(c1)CCO2` (stereo not drawn) [Example 177, 3-(Butyl-{4-[3-(2,5-dioxo-pyrrolidin-1-yl)-propyl]-3-methyl-benzyl}-amino)-3-(2,3-dihydro-benzofuran-5-yl)-propionic acid] was tested. Which IC50 did it give?
The IC50 was 255 nM.
